Assay results reported in patent US20150225454A1, “TETRABRANCHED PEPTIDES AND ANALOGUES AS A NEW CLASS OF ANTIMICROBIALS AND THEIR PREPARATION THEREOF” (priority 2012, published 2015).
Where a SMILES comes first, the peptide text is derived from it. Bridges are numbered along the chain shown (N, C = ends). Roman numbers before positions name the chains, in order. Where no end group is shown, it is not given here.

Tested on: C. albicans
Test: microbe, parasite or virus in culture
Type: cell-based
Conditions: against both C. albicans and Fusarium strains
Protocol: The yeast strains were cultivated and suspended in Sabouraud's Dextrose (SD) broth diluted at one sixth at a starting OD600=˜0.08 in a flat-bottomed microtitre plate. A serial dilution of peptide in the same broth was mixed with the inoculum to give a final peptide concentration of 0.4-22 μM. The antifungal activity was assessed by monitoring the OD600 in cycles of 30 minutes and an orbital shaking at 100 rpm using an Infinite M200 microplate reader (Tecan Group Ltd., Switzerland) for 24/48 h at 37° C. Cultures without peptides were used as positive controls and broth alone or with 22 μM peptide served as negative controls. The minimum concentration required for complete inhibition was assessed by both visible observations as well as by measuring the OD600 and taken as the MIC. Each experiment was repeated in triplicates.

Question: With “RGRKVVRRKK [Monomer, reference compound]” as the compound, how does the antifungal activity read?
Answer: weak antifungal activity

Question: For “RGRKVVRRKKKRRVVKRGR [Linear Retrodimer, reference compound]”, which antifungal activity is on record?
Answer: weak antifungal activity

Tested on: IOBA-NHC cells
Test: not given
Type: cell-based, human
Conditions: 24 h
Protocol: IOBA-NHC cells were cultured under standard conditions (humidified atmosphere of 5% CO2 at 37° C.) in DMEM/F12 supplemented with 1 μg/ml bovine pancreas insulin, 2 ng/ml mouse epidermal growth factor, 0.1 μg/ml cholera toxin, […] hydrocortisone, 10% fetal bovine serum (FBS), 50 UI/ml penicillin, and 50 UI/ml streptomycin. Cells from passages 50-80 were used in all experiments. Every day, normal culture development was observed by phase-contrast microscopy. Cells were removed by gentle trypsin incubation at confluence and counted. They were seeded into 96 well culture plates (Corning, Schiphol-Rijk, The Netherlands) for microtitration analysis of flow cytotoxicity assay (˜10,000 cells/well). Cultures were kept at 37° C. for 24 h. Subconfluent cells (culture surface covering nearly 70%) were then exposed to various peptide concentrations (0.22-225 μM). Cytotoxicity was measured periodically using MultiTox-Fluor Multiplex assay kit (Promega, Wis., USA) by measuring the AFC fluorescence (λex=485 and λem=520 nm).

Question: With CC(C)[C@H](NC(=O)[C@H](CCCCN)NC(=O)[C@H](CCCNC(=N)N)NC(=O)CNC(=O)[C@@H](N)CCCNC(=N)N)C(=O)N[C@H](C(=O)N[C@@H](C)C(=O)N[C@@H](C)C(=O)NCCCC[C@H](NC(=O)[C@H](C)NC(=O)[C@H](C)NC(=O)[C@@H](NC(=O)[C@@H](NC(=O)[C@H](CCCCN)NC(=O)[C@H](CCCNC(=N)N)NC(=O)CNC(=O)[C@@H](N)CCCNC(=N)N)C(C)C)C(C)C)C(=O)NCCCC[C@H](NC(=O)[C@H](CCCCNC(=O)[C@H](C)NC(=O)[C@H](C)NC(=O)[C@@H](NC(=O)[C@@H](NC(=O)[C@H](CCCCN)NC(=O)[C@H](CCCNC(=N)N)NC(=O)CNC(=O)[C@@H](N)CCCNC(=N)N)C(C)C)C(C)C)NC(=O)[C@H](C)NC(=O)[C@H](C)NC(=O)[C@@H](NC(=O)[C@@H](NC(=O)[C@H](CCCCN)NC(=O)[C@H](CCCNC(=N)N)NC(=O)CNC(=O)[C@@H](N)CCCNC(=N)N)C(C)C)C(C)C)C(=O)N[C@@H](CCCCN)C(=O)O)C(C)C [[(SEQ ID NO: 11)2K]2KK] (I: H-RGRKVVAAKKK-OH / II: H-RGRKVVAAK / III: H-RGRKVVAA / IV: H-RGRKVVAA; amide I:9-IV:C, I:10-II:C, II:9-III:C; N-terminus and C-terminus assumed) as the compound, how does the EC50 read?
Answer: > 257 µM

Question: With C[C@H](NC(=O)[C@H](C)NC(=O)[C@H](CCCCN)NC(=O)[C@H](CCCNC(=N)N)NC(=O)CNC(=O)[C@@H](N)CCCNC(=N)N)C(=O)N[C@@H](CCCNC(=N)N)C(=O)N[C@@H](CCCNC(=N)N)C(=O)NCCCC[C@H](NC(=O)[C@H](CCCNC(=N)N)NC(=O)[C@H](CCCNC(=N)N)NC(=O)[C@H](C)NC(=O)[C@H](C)NC(=O)[C@H](CCCCN)NC(=O)[C@H](CCCNC(=N)N)NC(=O)CNC(=O)[C@@H](N)CCCNC(=N)N)C(=O)NCCCC[C@H](NC(=O)[C@H](CCCCNC(=O)[C@H](CCCNC(=N)N)NC(=O)[C@H](CCCNC(=N)N)NC(=O)[C@H](C)NC(=O)[C@H](C)NC(=O)[C@H](CCCCN)NC(=O)[C@H](CCCNC(=N)N)NC(=O)CNC(=O)[C@@H](N)CCCNC(=N)N)NC(=O)[C@H](CCCNC(=N)N)NC(=O)[C@H](CCCNC(=N)N)NC(=O)[C@H](C)NC(=O)[C@H](C)NC(=O)[C@H](CCCCN)NC(=O)[C@H](CCCNC(=N)N)NC(=O)CNC(=O)[C@@H](N)CCCNC(=N)N)C(=O)N[C@@H](CCCCN)C(=O)O [[(SEQ ID NO: 13)2K]2KK] (I: H-RGRKAARRKKK-OH / II: H-RGRKAARRK / III: H-RGRKAARR / IV: H-RGRKAARR; amide I:9-IV:C, I:10-II:C, II:9-III:C; N-terminus and C-terminus assumed) as the compound, how does the EC50 read?
Answer: 46 µM

Question: For CC(C)[C@H](NC(=O)[C@H](C)NC(=O)[C@H](C)NC(=O)[C@H](C)NC(=O)CNC(=O)[C@@H](N)CCCNC(=N)N)C(=O)N[C@@H](CCCNC(=N)N)C(=O)N[C@@H](CCCNC(=N)N)C(=O)NCCCC[C@H](NC(=O)[C@H](CCCNC(=N)N)NC(=O)[C@H](CCCNC(=N)N)NC(=O)[C@@H](NC(=O)[C@H](C)NC(=O)[C@H](C)NC(=O)[C@H](C)NC(=O)CNC(=O)[C@@H](N)CCCNC(=N)N)C(C)C)C(=O)NCCCC[C@H](NC(=O)[C@H](CCCCNC(=O)[C@H](CCCNC(=N)N)NC(=O)[C@H](CCCNC(=N)N)NC(=O)[C@@H](NC(=O)[C@H](C)NC(=O)[C@H](C)NC(=O)[C@H](C)NC(=O)CNC(=O)[C@@H](N)CCCNC(=N)N)C(C)C)NC(=O)[C@H](CCCNC(=N)N)NC(=O)[C@H](CCCNC(=N)N)NC(=O)[C@@H](NC(=O)[C@H](C)NC(=O)[C@H](C)NC(=O)[C@H](C)NC(=O)CNC(=O)[C@@H](N)CCCNC(=N)N)C(C)C)C(=O)N[C@@H](CCCCN)C(=O)O [[(SEQ ID NO: 14)2K]2KK] (I: H-RGAAAVRRKKK-OH / II: H-RGAAAVRRK / III: H-RGAAAVRR / IV: H-RGAAAVRR; amide I:9-IV:C, I:10-II:C, II:9-III:C; N-terminus and C-terminus assumed), which EC50 is on record?
Answer: > 257 µM

Question: Which EC50 does the source give for C[C@H](NC(=O)CNC(=O)[C@@H](N)CCCNC(=N)N)C(=O)N[C@@H](CCCCN)C(=O)N[C@@H](C)C(=O)N[C@@H](C)C(=O)N[C@@H](CCCNC(=N)N)C(=O)N[C@@H](CCCNC(=N)N)C(=O)NCCCC[C@H](NC(=O)[C@H](CCCNC(=N)N)NC(=O)[C@H](CCCNC(=N)N)NC(=O)[C@H](C)NC(=O)[C@H](C)NC(=O)[C@H](CCCCN)NC(=O)[C@H](C)NC(=O)CNC(=O)[C@@H](N)CCCNC(=N)N)C(=O)NCCCC[C@H](NC(=O)[C@H](CCCCNC(=O)[C@H](CCCNC(=N)N)NC(=O)[C@H](CCCNC(=N)N)NC(=O)[C@H](C)NC(=O)[C@H](C)NC(=O)[C@H](CCCCN)NC(=O)[C@H](C)NC(=O)CNC(=O)[C@@H](N)CCCNC(=N)N)NC(=O)[C@H](CCCNC(=N)N)NC(=O)[C@H](CCCNC(=N)N)NC(=O)[C@H](C)NC(=O)[C@H](C)NC(=O)[C@H](CCCCN)NC(=O)[C@H](C)NC(=O)CNC(=O)[C@@H](N)CCCNC(=N)N)C(=O)N[C@@H](CCCCN)C(=O)O [[(SEQ ID NO: 15)2K]2KK] (I: H-RGAKAARRKKK-OH / II: H-RGAKAARRK / III: H-RGAKAARR / IV: H-RGAKAARR; amide I:9-IV:C, I:10-II:C, II:9-III:C; N-terminus and C-terminus assumed) here?
Answer: > 250 µM

Question: With C[C@H](NC(=O)[C@H](C)NC(=O)[C@H](CCCNC(=N)N)NC(=O)CNC(=O)[C@@H](N)CCCNC(=N)N)C(=O)N[C@@H](C)C(=O)N[C@@H](CCCNC(=N)N)C(=O)N[C@@H](CCCNC(=N)N)C(=O)NCCCC[C@H](NC(=O)[C@H](CCCNC(=N)N)NC(=O)[C@H](CCCNC(=N)N)NC(=O)[C@H](C)NC(=O)[C@H](C)NC(=O)[C@H](C)NC(=O)[C@H](CCCNC(=N)N)NC(=O)CNC(=O)[C@@H](N)CCCNC(=N)N)C(=O)NCCCC[C@H](NC(=O)[C@H](CCCCNC(=O)[C@H](CCCNC(=N)N)NC(=O)[C@H](CCCNC(=N)N)NC(=O)[C@H](C)NC(=O)[C@H](C)NC(=O)[C@H](C)NC(=O)[C@H](CCCNC(=N)N)NC(=O)CNC(=O)[C@@H](N)CCCNC(=N)N)NC(=O)[C@H](CCCNC(=N)N)NC(=O)[C@H](CCCNC(=N)N)NC(=O)[C@H](C)NC(=O)[C@H](C)NC(=O)[C@H](C)NC(=O)[C@H](CCCNC(=N)N)NC(=O)CNC(=O)[C@@H](N)CCCNC(=N)N)C(=O)N[C@@H](CCCCN)C(=O)O [[(SEQ ID NO: 16)2K]2KK] (I: H-RGRAAARRKKK-OH / II: H-RGRAAARRK / III: H-RGRAAARR / IV: H-RGRAAARR; amide I:9-IV:C, I:10-II:C, II:9-III:C; N-terminus and C-terminus assumed) as the compound, how does the EC50 read?
Answer: 169 µM

Question: For C[C@H](NC(=O)CNC(=O)[C@@H](N)CCCNC(=N)N)C(=O)N[C@@H](C)C(=O)N[C@@H](C)C(=O)N[C@@H](C)C(=O)N[C@@H](CCCNC(=N)N)C(=O)N[C@@H](CCCNC(=N)N)C(=O)NCCCC[C@H](NC(=O)[C@H](CCCNC(=N)N)NC(=O)[C@H](CCCNC(=N)N)NC(=O)[C@H](C)NC(=O)[C@H](C)NC(=O)[C@H](C)NC(=O)[C@H](C)NC(=O)CNC(=O)[C@@H](N)CCCNC(=N)N)C(=O)NCCCC[C@H](NC(=O)[C@H](CCCCNC(=O)[C@H](CCCNC(=N)N)NC(=O)[C@H](CCCNC(=N)N)NC(=O)[C@H](C)NC(=O)[C@H](C)NC(=O)[C@H](C)NC(=O)[C@H](C)NC(=O)CNC(=O)[C@@H](N)CCCNC(=N)N)NC(=O)[C@H](CCCNC(=N)N)NC(=O)[C@H](CCCNC(=N)N)NC(=O)[C@H](C)NC(=O)[C@H](C)NC(=O)[C@H](C)NC(=O)[C@H](C)NC(=O)CNC(=O)[C@@H](N)CCCNC(=N)N)C(=O)N[C@@H](CCCCN)C(=O)O [[(SEQ ID NO: 17)2K]2KK] (I: H-RGAAAARRKKK-OH / II: H-RGAAAARRK / III: H-RGAAAARR / IV: H-RGAAAARR; amide I:9-IV:C, I:10-II:C, II:9-III:C; N-terminus and C-terminus assumed), which EC50 is on record?
Answer: > 265 µM

Question: Which EC50 does the source give for C[C@H](NC(=O)[C@H](C)NC(=O)[C@H](C)NC(=O)[C@H](C)NC(=O)[C@H](CCCCN)NC(=O)[C@H](CCCNC(=N)N)NC(=O)CNC(=O)[C@@H](N)CCCNC(=N)N)C(=O)NCCCC[C@H](NC(=O)[C@H](C)NC(=O)[C@H](C)NC(=O)[C@H](C)NC(=O)[C@H](C)NC(=O)[C@H](CCCCN)NC(=O)[C@H](CCCNC(=N)N)NC(=O)CNC(=O)[C@@H](N)CCCNC(=N)N)C(=O)NCCCC[C@H](NC(=O)[C@H](CCCCNC(=O)[C@H](C)NC(=O)[C@H](C)NC(=O)[C@H](C)NC(=O)[C@H](C)NC(=O)[C@H](CCCCN)NC(=O)[C@H](CCCNC(=N)N)NC(=O)CNC(=O)[C@@H](N)CCCNC(=N)N)NC(=O)[C@H](C)NC(=O)[C@H](C)NC(=O)[C@H](C)NC(=O)[C@H](C)NC(=O)[C@H](CCCCN)NC(=O)[C@H](CCCNC(=N)N)NC(=O)CNC(=O)[C@@H](N)CCCNC(=N)N)C(=O)N[C@@H](CCCCN)C(=O)O [[(SEQ ID NO: 18)2K]2KK] (I: H-RGRKAAAAKKK-OH / II: H-RGRKAAAAK / III: H-RGRKAAAA / IV: H-RGRKAAAA; amide I:9-IV:C, I:10-II:C, II:9-III:C; N-terminus and C-terminus assumed) here?
Answer: > 273 µM

Tested on: fungi
Test: not given
Conditions: cited from earlier work

Question: For Clc1ccc(COC(Cn2ccnc2)c2ccc(Cl)cc2Cl)c(Cl)c1 (stereo not shown) [Miconazole], which Activity is on record?
Answer: Broad spectrum
